Measurements taken from patent US7704992B2, “Hepatitis C virus inhibitors” (Bristol-Myers Squibb Company, priority 2008, dated 2010).

Each molecule was assayed on HCV 1b-377-neo replicon cells (assay: HCV Replicon assay, HCV 1b genotype). Conditions: Hepatitis C virus, class symbol, read-out: EC50 range against HCV 1b.
Assay type: cell-based
Procedure: An HCV Replicon assay was utilized in the present disclosure, and was prepared, conducted and validated as described in commonly owned PCT/US2006/022197 and in O'Boyle et. al. Antimicrob Agents Chemother. 2005 April; 49(4): 1346-53.
HCV 1b-377-neo replicon cells were used to test the currently described compound series as well as cells resistant to compound A containing a Y2065H mutation in NS5A (described in application PCT/US2006/022197). The compounds tested were determined to have more than 10-fold less inhibitory activity on cells containing the mutation than wild-type cells indicating a related mechanism of action between the two compound series. Thus, the compounds of the present disclosure can be effective to inhibit the function of the HCV NS5A protein and are understood to be as effective in combinations as previously described in application PCT/US2006/022197 and commonly owned WO/04014852. Further, the compounds of the present disclosure can be effective against the HCV 1b genotype. It should also be understood that the compounds of the present disclosure can inhibit multiple genotypes of HCV. […] In one embodiment compounds of the present disclosure are active against the 1a, 1b, 2a, 2b, 3a, 4a, and 5a genotypes.
COC(=O)N[C@H](C(=O)N1CCC[C@H]1c1ncc(-c2ccc3c(c2)COCc2cc(-c4cnc([C@@H]5CCCN5C(=O)[C@@H](NC(=O)OC)C(C)C)[nH]4)ccc2-3)[nH]1)C(C)C [Example 8, methyl ((1S)-1-(((2S)-2-(5-(9-(2-((2S)-1-((2S)-2-((methoxycarbonyl)amino)-3-methylbutanoyl)-2-pyrrolidinyl)-1H-imidazol-4-yl)-5,7-dihydrodibenzo[c,e]oxepin-3-yl)-1H-imidazol-2-yl)-1-pyrrolidinyl)carbonyl)-2-methylpropyl)carbamate] showed an EC50 of 0.001 to 0.1 nM. With COC(=O)N[C@@H](C)C(=O)N1CCC[C@H]1c1ncc(-c2ccc3c(c2)COCc2cc(-c4cnc([C@@H]5CCCN5C(=O)[C@H](C)NC(=O)OC)[nH]4)ccc2-3)[nH]1 [Example 9, methyl ((1S)-2-((2S)-2-(4-(9-(2-((2S)-1-(N-(methoxycarbonyl)-L-alanyl)-2-pyrrolidinyl)-1H-imidazol-4-yl)-5,7-dihydrodibenzo[c,e]oxepin-3-yl)-1H-imidazol-2-yl)-1-pyrrolidinyl)-1-methyl-2-oxoethyl)carbamate] the EC50 was 0.001 to 0.1 nM. Work on COC(=O)N[C@H](C(=O)N1CCC[C@H]1c1ncc(-c2ccc3c(c2)COCc2cc(-c4cnc([C@@H]5CCCN5C(=O)[C@@H](NC(=O)OC)C5CCOCC5)[nH]4)ccc2-3)[nH]1)C1CCOCC1 [Example 10, dimethyl (5,7-dihydrodibenzo[c,e]oxepine-3,9-diylbis(1H-imidazole-4,2-diyl(2S)-2,1-pyrrolidinediyl((1S)-2-oxo-1-(tetrahydro-2H-pyran-4-yl)-2,1-ethanediyl)))biscarbamate] yielded an EC50 of 0.101 to 0.999 nM. For COC(=O)NC(C(=O)N1CCC[C@H]1c1ncc(-c2ccc3c(c2)COCc2cc(-c4cnc([C@@H]5CCCN5C(=O)C(NC(=O)OC)C5CCOCC5)[nH]4)ccc2-3)[nH]1)C1CCOCC1 (stereo partly drawn) [Example 10A, dimethyl (5,7-dihydrodibenzo[c,e]oxepine-3,9-diylbis(1H-imidazole-4,2-diyl(2S)-2,1-pyrrolidinediyl(2-oxo-1-(tetrahydro-2H-pyran-4-yl)-2,1-ethanediyl)))biscarbamate], the EC50 was 1 to 99 nM. COC(=O)N[C@H](C(=O)N1CCC[C@H]1c1ncc(-c2ccc3c(c2)C(C)(N(C)C)c2cc(-c4cnc([C@@H]5CCCN5C(=O)[C@@H](NC(=O)OC)C(C)C)[nH]4)ccc2-3)[nH]1)C(C)C [Example 13, methyl ((1S)-1-(((2S)-2-(5-(9-(dimethylamino)-7-(2-((2S)-1-((2S)-2-((methoxycarbonyl)amino)-3-methylbutanoyl)-2-pyrrolidinyl)-1H-imidazol-5-yl)-9-methyl-9H-fluoren-2-yl)-1H-imidazol-2-yl)-1-pyrrolidinyl)carbonyl)-2-methylpropyl)carbamate] showed an EC50 of 0.001 to 0.1 nM. Molecule COC(=O)N[C@H](C(=O)N1CCC[C@H]1c1ncc(-c2ccc3c(c2)C(C)(C)c2cc(-c4cnc([C@@H]5CCCN5C(=O)[C@@H](NC(=O)OC)C(C)C)[nH]4)ccc2-3)[nH]1)C(C)C [Example 14, methyl ((1S)-1-(((2S)-2-(5-(7-(2-((2S)-1-((2S)-2-((methoxycarbonyl)amino)-3-methylbutanoyl)-2-pyrrolidinyl)-1H-imidazol-5-yl)-9,9-dimethyl-9H-fluoren-2-yl)-1H-imidazol-2-yl)-1-pyrrolidinyl)carbonyl)-2-methylpropyl)carbamate] has an EC50 of 0.001 to 0.1 nM. With COC(=O)N[C@H](C(=O)N1CCC[C@H]1c1ncc(-c2ccc3c(c2)C2(CCC2)c2cc(-c4cnc([C@@H]5CCCN5C(=O)[C@@H](NC(=O)OC)C(C)C)[nH]4)ccc2-3)[nH]1)C(C)C [Example 16, methyl ((1S)-1-(((2S)-2-(5-(7′-(2-((2S)-1-((2S)-2-((methoxycarbonyl)amino)-3-methylbutanoyl)-2-pyrrolidinyl)-1H-imidazol-5-yl)spiro[cyclobutane-1,9′-fluoren]-2′-yl)-1H-imidazol-2-yl)-1-pyrrolidinyl)carbonyl)-2-methylpropyl)carbamate] the EC50 was 0.001 to 0.1 nM. COC(=O)N[C@@H](C)C(=O)N1CCC[C@H]1c1ncc(-c2ccc3c(c2)C2(CCC2)c2cc(-c4cnc([C@@H]5CCCN5C(=O)[C@H](C)NC(=O)OC)[nH]4)ccc2-3)[nH]1 [Example 17] showed an EC50 of 0.001 to 0.1 nM. Work on COC(=O)N[C@H](C(=O)N1CCC[C@H]1c1ncc(-c2ccc3c(c2)oc2cc(-c4cnc([C@@H]5CCCN5C(=O)[C@@H](NC(=O)OC)C(C)C)[nH]4)ccc23)[nH]1)C(C)C [Example 18, methyl ((1S)-1-(((2S)-2-(4-(7-(2-((2S)-1-((2S)-2-((methoxycarbonyl)amino)-3-methylbutanoyl)-2-pyrrolidinyl)-1H-imidazol-4-yl)dibenzo[b,d]furan-3-yl)-1H-imidazol-2-yl)-1-pyrrolidinyl)carbonyl)-2-methylpropyl)carbamate] yielded an EC50 of 0.001 to 0.1 nM. Work on COC(=O)N[C@H](C(=O)N1CCC[C@H]1c1ncc(-c2ccc3c(c2)oc2cc(-c4cnc([C@@H]5CCCN5C(=O)[C@@H](NC(=O)OC)C5CC5)[nH]4)ccc23)[nH]1)C1CC1 [Example 19, dimethyl (dibenzo[b,d]furan-3,7-diylbis(1H-imidazole-4,2-diyl(2S)-2,1-pyrrolidinediyl((1S)-1-cyclopropyl-2-oxo-2,1-ethanediyl)))biscarbamate] yielded an EC50 of 0.001 to 0.1 nM. COC(=O)N[C@H](C(=O)N1CCC[C@H]1c1ncc(-c2ccc3c(c2)oc2cc(-c4cnc([C@@H]5CCCN5C(=O)[C@@H](NC(=O)OC)C(C)(C)C)[nH]4)ccc23)[nH]1)C(C)(C)C [Example 20, methyl ((1S)-1-(((2S)-2-(4-(7-(2-((2S)-1-((2S)-2-((methoxycarbonyl)amino)-3,3-dimethylbutanoyl)-2-pyrrolidinyl)-1H-imidazol-4-yl)dibenzo[b,d]furan-3-yl)-1H-imidazol-2-yl)-1-pyrrolidinyl)carbonyl)-2,2-dimethylpropyl)carbamate] showed an EC50 of 0.001 to 0.1 nM. For COC(=O)N[C@H](C(=O)N1CCC[C@H]1c1ncc(-c2ccc3c(c2)oc2cc(-c4cnc([C@@H]5CCCN5C(=O)[C@@H](NC(=O)OC)C(C)(C)O)[nH]4)ccc23)[nH]1)C(C)(C)O [Example 21, methyl ((1S)-2-hydroxy-1-(((2S)-2-(4-(7-(2-((2S)-1-((2S)-3-hydroxy-2-((methoxycarbonyl)amino)-3-methylbutanoyl)-2-pyrrolidinyl)-1H-imidazol-4-yl)dibenzo[b,d]furan-3-yl)-1H-imidazol-2-yl)-1-pyrrolidinyl)carbonyl)-2-methylpropyl)carbamate], the EC50 was 0.001 to 0.1 nM. COC(=O)N[C@@H](C)C(=O)N1CCC[C@H]1c1ncc(-c2ccc3c4ccc(-c5cnc([C@@H]6CCCN6C(=O)[C@H](C)NC(=O)OC)[nH]5)cc4n(C)c3c2)[nH]1 [Example 22, methyl ((1S)-2-((2S)-2-(5-(7-(2-((2S)-1-(N-(methoxycarbonyl)-L-alanyl)-2-pyrrolidinyl)-1H-imidazol-5-yl)-9-methyl-9H-carbazol-2-yl)-1H-imidazol-2-yl)-1-pyrrolidinyl)-1-methyl-2-oxoethyl)carbamate] showed an EC50 of 1 to 99 nM.

Same assay, conditions: Hepatitis C virus, value in nM, read-out: EC50 value against HCV 1b
With COC(=O)N[C@H](C(=O)N1CCC[C@H]1c1ncc(-c2ccc3c(c2)CN(C)Cc2cc(-c4cnc([C@@H]5CCCN5C(=O)[C@@H](NC(=O)OC)C(C)C)[nH]4)ccc2-3)[nH]1)C(C)C [Example 6, methyl ((1S)-1-(((2S)-2-(5-(9-(2-((2S)-1-((2S)-2-((methoxycarbonyl)amino)-3-methylbutanoyl)-2-pyrrolidinyl)-1H-imidazol-5-yl)-6-methyl-6,7-dihydro-5H-dibenzo[c,e]azepin-3-yl)-1H-imidazol-2-yl)-1-pyrrolidinyl)carbonyl)-2-methylpropyl) carbamate] the EC50 was 2 nM.

Same assay, conditions: Hepatitis C virus, value in pM, read-out: EC50 value against HCV 1b
In the case of COC(=O)N[C@H](C(=O)N1CCC[C@H]1c1ncc(-c2ccc3c(c2)COCc2cc(-c4cnc([C@@H]5CCCN5C(=O)[C@@H](NC(=O)OC)[C@@H](C)OC)[nH]4)ccc2-3)[nH]1)[C@@H](C)OC [Example 11, methyl ((1S,2R)-2-methoxy-1-(((2S)-2-(4-(9-(2-((2S)-1-(N-(methoxycarbonyl)-O-methyl-L-threonyl)-2-pyrrolidinyl)-1H-imidazol-4-yl)-5,7-dihydrodibenzo[c,e]oxepin-3-yl)-1H-imidazol-2-yl)-1-pyrrolidinyl)carbonyl)propyl)carbamate], the EC50 is reported as 0.146 nM. Work on COC(=O)N[C@H](C(=O)N1CCC[C@H]1c1ncc(-c2ccc3c(c2)C(C)(C)c2cc(-c4cnc([C@@H]5CCCN5C(=O)[C@@H](NC(=O)OC)C5CC5)[nH]4)ccc2-3)[nH]1)C1CC1 [Example 15, dimethyl ((9,9-dimethyl-9H-fluorene-2,7-diyl)bis(1H-imidazole-5,2-diyl(2S)-2,1-pyrrolidinediyl((1S)-1-cyclopropyl-2-oxo-2,1-ethanediyl)))biscarbamate] yielded an EC50 of 0.052 nM.

Same assay, conditions: class symbol, read-out: EC50 range against HCV 1b
With COC(=O)N[C@H](C(=O)N1CCC[C@H]1c1ncc(-c2ccc3c4ccc(-c5cnc([C@@H]6CCCN6C(=O)[C@@H](NC(=O)OC)[C@@H](C)OC)[nH]5)cc4n(C)c3c2)[nH]1)[C@@H](C)OC [Example 23, methyl ((1S,2R)-2-methoxy-1-(((2S)-2-(5-(7-(2-((2S)-1-(N-(methoxycarbonyl)-O-methyl-L-threonyl)-2-pyrrolidinyl)-1H-imidazol-5-yl)-9-methyl-9H-carbazol-2-yl)-1H-imidazol-2-yl)-1-pyrrolidinyl)carbonyl)propyl) carbamate] the EC50 was 0.001 to 0.1 nM.
